# Results taken from ChEMBL document CHEMBL1122789, “Synthesis and biological activity of structural analogues of the anticancer benzophenanthridine alkaloid nitidine chloride” (1984).
# What was measured:
# B16 [1] = experiment: Evaluated for anticancer activity in survival tumor system B16 melanocarcinoma at dose 50 mg/kg; type: functional, Mus musculus
# B16 [2] = experiment: Evaluated for anticancer activity in survival tumor system B16 melanocarcinoma at dose 6.25 mg/kg; type: functional, Mus musculus
# B16 [3] = experiment: Evaluated for anticancer activity in survival tumor system B16 melanocarcinoma at a dose of 100 mg/kg, value was reported as weight difference; type: functional, Mus musculus
# B16 [4] = experiment: Evaluated for anticancer activity in survival tumor system B16 melanocarcinoma at a dose of 12.5 mg/kg, value was reported as weight difference; type: functional, Mus musculus
# B16 [5] = experiment: Evaluated for anticancer activity in survival tumor system B16 melanocarcinoma at a dose of 200 mg/kg, value was reported as weight difference; type: functional, Mus musculus
# B16 [6] = experiment: Evaluated for anticancer activity in survival tumor system B16 melanocarcinoma at a dose of 6.25 mg/kg, value was reported as weight difference; type: functional, Mus musculus
# B16 [7] = experiment: Evaluated for anticancer activity in survival tumor system B16 melanocarcinoma at a dose of 100 mg/kg; Number of Tested survived/number of control survived (7/10); type: functional, Mus musculus
# B16 [8] = experiment: Evaluated for anticancer activity in survival tumor system B16 melanocarcinoma at a dose of 50 mg/kg, value was reported as weight difference; type: functional, Mus musculus
# B16 [9] = experiment: Evaluated for anticancer activity in survival tumor system B16 melanocarcinoma at a dose of 50 mg/kg; number of Tested survived/number of control survived; type: functional, Mus musculus
# [10] = Evaluated for anticancer activity in tumor inhibition system CD8F1 mammary tumors at a dose of 125 mg/kg; Number of Tested survived/number of control survived (10/10); type: functional, Mus musculus
# [11] = Evaluated for anticancer activity in tumor inhibition system CD8F1 mammary tumors at a dose of 250 mg/kg; number of Tested survived/number of control survived; type: functional, Mus musculus
# [12] = Evaluated for anticancer activity in tumor inhibition system CD8F1 mammary tumors at a dose of 500 mg/kg; Number of Tested survived/number of control survived (0/10); type: functional, Mus musculus
# [13] = Evaluated for anticancer activity in tumor inhibition system CD8F1 mammary tumor at dose 62 mg/kg; type: functional, Mus musculus
# [14] = Evaluated for anticancer activity in tumor inhibition system CD8F mammary tumor at a dose of 125 mg/kg, value was reported as weight difference; type: functional, Mus musculus
# [15] = Evaluated for anticancer activity in tumor inhibition system CD8F mammary tumor at a dose of 62 mg/kg, value was reported as weight difference; type: functional, Mus musculus
# KB = experiment: Evaluated in vitro for cytotoxicity against KB cell culture system; type: functional; conditions: Homo sapiens, read-out: ED50 (the source's name)
# L1210 [16] = experiment: Evaluated for anticancer activity in survival tumor system L1210 lymphoid leukemia at a dose of 100 mg/kg, value was reported as weight difference; type: functional, Mus musculus
# L1210 [17] = experiment: Evaluated for anticancer activity in survival tumor system L1210 lymphoid leukemia at a dose of 50 mg/kg, value was reported as weight difference; type: functional, Mus musculus
# L1210 [18] = experiment: Evaluated for anticancer activity in survival tumor system L1210 lymphoid leukemia at a dose of 6.25 mg/kg, value was reported as weight difference; type: functional, Mus musculus
# L1210 [19] = experiment: Evaluated for anticancer activity in survival tumor system L1210 lymphoid leukemia at dose 100 mg/kg; type: functional, Mus musculus
# L1210 [20] = experiment: Evaluated for anticancer activity in survival tumor system L1210 lymphoid leukemia at dose 12.5 mg/kg; type: functional, Mus musculus
# L1210 [21] = experiment: Evaluated for anticancer activity in survival tumor system L1210 lymphoid leukemia at a dose of 25 mg/kg; Number of Tested survived/number of control survived (6/6); type: functional, Mus musculus
# L1210 [22] = experiment: Evaluated for anticancer activity in survival tumor system L1210 lymphoid leukemia at a dose of 3.125 mg/kg; Number of Tested survived/number of control survived (6/6); type: functional, Mus musculus
# [23] = system: Lewis lung carcinoma cell line; experiment: Evaluated for anticancer activity in survival tumor system Lewis lung (LL) carcinoma at dose 100 mg/kg; type: functional, Mus musculus
# [24] = system: Lewis lung carcinoma cell line; experiment: Evaluated for anticancer activity in survival tumor system Lewis lung (LL) carcinoma at dose 25 mg/kg; type: functional, Mus musculus
# L1210 [25] = experiment: Evaluated for anticancer activity in survival tumor system L1210 lymphoid leukemia at dose 3.12 mg/kg; type: functional, Mus musculus
# L1210 [26] = experiment: Evaluated for anticancer activity in survival tumor system L1210 lymphoid leukemia at dose 50 mg/kg; type: functional, Mus musculus
# [27] = system: Lewis lung carcinoma cell line; experiment: Evaluated for anticancer activity in survival tumor system Lewis lung (LL) carcinoma at a dose of 50 mg/kg;Number of Tested survived/number of control survived (10/10); type: functional, Mus musculus
# MX1 [28] = experiment: Evaluated for anticancer activity in tumor inhibition system MX-1 breast xenograph at a dose of 600 mg/kg; Number of Tested survived/number of control survived (0/6); type: functional, Homo sapiens
# MX1 [29] = experiment: Evaluated for anticancer activity in tumor inhibition system MX-1 breast xenograph at a dose of 150mg/kg, value was reported as weight difference; type: functional, Homo sapiens
# [30] = system: Lewis lung carcinoma cell line; experiment: Evaluated for anticancer activity in survival tumor system Lewis lung (LL) carcinoma at a dose of 12.5 mg/kg, value was reported as weight difference; type: functional, Mus musculus
# [31] = system: Lewis lung carcinoma cell line; experiment: Evaluated for anticancer activity in survival tumor system Lewis lung (LL) carcinoma at a dose of 200 mg/kg, value was reported as weight difference; type: functional, Mus musculus
# P388 [32] = experiment: Evaluated for anticancer activity in survival tumor system P388 lymphocytic leukemia at dose 100 mg/kg; type: functional, Mus musculus
# P388 [33] = experiment: Evaluated for anticancer activity in survival tumor system P388 lymphocytic leukemia at dose 12.5 mg/kg; type: functional, Mus musculus
# P388 [34] = experiment: Evaluated for anticancer activity in survival tumor system P388 lymphocytic leukemia at a dose of 100 mg/kg; Number of Tested survived/number of control survived (5/6); type: functional, Mus musculus
# P388 [35] = experiment: Evaluated for anticancer activity in survival tumor system P388 lymphocytic leukemia at a dose of 25 mg/kg;Number of Tested survived/number of control survived (5/6); type: functional, Mus musculus
# P388 [36] = experiment: Evaluated for anticancer activity in survival tumor system P388 lymphocytic leukemia at a dose of 100 mg/kg, value was reported as weight difference; type: functional, Mus musculus
# P388 [37] = experiment: Evaluated for anticancer activity in survival tumor system P388 lymphocytic leukemia at a dose of 25 mg/kg, value was reported as weight difference; type: functional, Mus musculus
# [38] = Evaluated for anticancer activity in tumor inhibition system colon 38 tumors at a dose of 200 mg/kg; Number of Tested survived/number of control survived (10/10); type: functional, Mus musculus
# [39] = Evaluated for anticancer activity in tumor inhibition system colon 38 tumors at a dose of 800 mg/kg; Number of Tested survived/number of control survived (0/10); type: functional, Mus musculus
# [40] = Evaluated for anticancer activity in tumor inhibition system colon 38 tumor at dose 100 mg/kg; type: functional, Mus musculus
# [41] = Evaluated for anticancer activity in tumor inhibition system colon 38 tumor at dose 400 mg/kg; type: functional, Mus musculus
# [42] = system: Lewis lung carcinoma cell line; experiment: Evaluated for anticancer activity in survival tumor system Lewis lung (LL) carcinoma at dose 12.5 mg/kg; type: functional, Mus musculus
# L1210 [43] = experiment: Evaluated for anticancer activity in survival tumor system L1210 lymphoid leukemia at dose 25 mg/kg; conditions: Mus musculus
# MX1 [44] = experiment: Evaluated for anticancer activity in tumor inhibition system MX-1 breast xenograph at a dose of 150 mg/kg; Number of Tested survived/number of control survived (5/6); conditions: Homo sapiens
compound,measurement,setting,value
COc1cc2c[n+](C)c3c(c2cc1OC)Cc1cc2c(cc1-3)OCO2.[Cl-],T/C,B16 [1],147%
same,T/C,B16 [2],148%
same,Weight change,B16 [3],-4.6
same,Weight change,B16 [4],-1
same,Weight change,B16 [5],-4.2
same,Weight change,B16 [6],-0.5
same,Survival,B16 [7],7
same,Weight change,B16 [8],-4.9
same,Survival,B16 [9],10
same,Survival,[10],10
same,Survival,[11],2
same,Survival,[12],0
same,T/C,[13],92%
same,Weight change,[14],-3.2
same,Weight change,[15],-1
same,EC50,KB,0.038 µg/mL
same,Weight change,L1210 [16],-5.8
same,Weight change,L1210 [17],-5.8
same,Weight change,L1210 [18],-3.2
same,T/C,L1210 [19],95%
same,T/C,L1210 [20],156%
same,Survival,L1210 [21],6
same,Survival,L1210 [22],6
same,T/C,[23],51%
same,T/C,[24],114%
same,T/C,L1210 [25],129%
same,T/C,L1210 [26],198%
same,Survival,[27],10
same,Survival,MX1 [28],0
same,Weight change,MX1 [29],-6
same,Weight change,[30],-0.9
same,Weight change,[31],-4.9
same,T/C,P388 [32],168%
same,T/C,P388 [33],134%
same,Survival,P388 [34],5
same,Survival,P388 [35],5
same,Weight change,P388 [36],-5.8
same,Weight change,P388 [37],-3.6
same,Survival,[38],10
same,Survival,[39],0
same,T/C,[40],107%
same,T/C,[41],85%
same,T/C,[42],97%
same,T/C,L1210 [43],165%
same,Survival,MX1 [44],5
